Test results taken from patent publication US6500853B1, “Inhibitors of phospholipase enzymes” (Genetics Institute, LLC, priority 1998, dated 2002).
Blank lines part the entries; values can stand above or below the molecule they belong to.

Tests used:
cPLA2 = biological target: T1, cPLA2 (Homo sapiens, UniProt P47712); assay: Coumarin Assay (cPLA2 inhibition); assay type: biochemical; conditions: for inhibition at 80 µM: CONCENTRATION 80 micromolar; for inhibition at 30 µM: CONCENTRATION 30 micromolar; for inhibition at 24 µM: CONCENTRATION 24 micromolar
T1 sequence (P47712 1-749): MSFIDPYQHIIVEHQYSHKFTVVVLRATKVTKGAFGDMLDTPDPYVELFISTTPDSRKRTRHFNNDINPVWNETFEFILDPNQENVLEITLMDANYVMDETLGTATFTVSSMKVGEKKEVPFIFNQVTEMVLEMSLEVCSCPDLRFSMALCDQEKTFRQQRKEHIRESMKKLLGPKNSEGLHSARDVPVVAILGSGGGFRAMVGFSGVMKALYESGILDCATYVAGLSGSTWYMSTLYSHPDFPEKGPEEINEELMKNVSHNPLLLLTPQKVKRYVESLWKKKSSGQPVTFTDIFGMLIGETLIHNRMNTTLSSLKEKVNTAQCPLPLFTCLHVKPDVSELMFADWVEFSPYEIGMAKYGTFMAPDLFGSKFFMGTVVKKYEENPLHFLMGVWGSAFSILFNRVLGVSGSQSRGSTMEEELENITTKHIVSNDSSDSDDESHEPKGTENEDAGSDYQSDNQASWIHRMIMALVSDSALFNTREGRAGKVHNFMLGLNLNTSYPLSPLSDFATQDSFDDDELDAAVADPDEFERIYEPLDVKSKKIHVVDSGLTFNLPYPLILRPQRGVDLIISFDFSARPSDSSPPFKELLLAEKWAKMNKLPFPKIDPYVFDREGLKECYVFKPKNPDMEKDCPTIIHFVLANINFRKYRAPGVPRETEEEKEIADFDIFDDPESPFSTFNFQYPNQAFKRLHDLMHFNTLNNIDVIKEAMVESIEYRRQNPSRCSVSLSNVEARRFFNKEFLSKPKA
Method in brief: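 Percent inhibition at the stated concentration, from the rate of 460 nm emission rise (360 nm excitation) per minute. Reaction started by adding 4 μg enzyme to compound and 60 μM 7-hydroxycoumarinyl 6-heptenoate in Hepes buffer pH 7.5 with 1 mM EDTA.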

[1] = test system: Rat Carrageenan-Induced Footpad Edema; assay: Rat Carrageenan-Induced Footpad Edema Test; assay type: in vivo, male Sprague Dawley rats; conditions: footpad volume 3 hours after carrageenan; for inhibition in vivo at 5 mg/kg / inhibition in vivo at 2 mg/kg / inhibition in vivo at 10 mg/kg: Rattus norvegicus, 3 h, read-out: PERCENT INHIBITION; for inhibition in vivo at 5 mg/kg: iv, IV; for inhibition in vivo at 2 mg/kg / inhibition in vivo at 10 mg/kg: po; for inhibition in vivo at 2 mg/kg / inhibition in vivo at 10 mg/kg / PERCENT INHIBITION: PO
[2] = CONCENTRATION 100 micromolar, read-out: PERCENT INHIBITION @

- inhibition at 50 µM (cPLA2; CONCENTRATION 50 micromolar, read-out: PERCENT INHIBITION @): 50%
- inhibition at 80 µM (cPLA2; read-out: PERCENT INHIBITION @): 50%
- inhibition at 94 µM (cPLA2; CONCENTRATION 94 micromolar, read-out: PERCENT INHIBITION @): 50%
SMILES: COc1cc(C(N)=O)ccc1Cc1cn(C(c2ccccc2)c2ccccc2)c2ccc(NC(=O)OC3CCCC3)cc12 [Example 97, Cyclopentyl-N-{3-[4-(aminocarbonyl)-2-methoxybenzyl]-1-benzhydryl-1H-indol-5-yl}carbamate]
- inhibition in vivo at 5 mg/kg [1]: 21.3%

- inhibition at 4.8 µM (cPLA2; CONCENTRATION 4.8 micromolar, read-out: PERCENT INHIBITION @): 50%
- inhibition at 6.25 µM (cPLA2; CONCENTRATION 6.25 micromolar, read-out: PERCENT INHIBITION @): 66%
- inhibition at 8.7 µM (cPLA2; CONCENTRATION 8.7 micromolar, read-out: PERCENT INHIBITION @): 50%
SMILES: COc1cc(-c2nnn[nH]2)ccc1Cc1cn(C(c2ccccc2)c2ccccc2)c2ccc(NC(=O)OC3CCCC3)cc12 [Example 98, cyclopentyl N-{1-benzhydryl-3-[2-methoxy-4-(1H-1,2,3,4-tetraazol-5-yl)benzyl]-1H-indol-5-yl}carbamate]
- inhibition in vivo at 5 mg/kg [1]: 18.4%

SMILES: O=C(O)c1cscc1NC(=O)c1cn(C(c2ccccc2)c2ccccc2)c2ccc(NC(=O)C3CCCC3)cc12 [Example 99, 4-[({1-benzhydryl-5-[(cyclopentylcarbonyl)amino]-1H-indol-3-yl}carbonyl)amino]-3-thiophenecarboxylic acid]
- inhibition at 30 µM (cPLA2; read-out: PERCENT INHIBITION @): 13%
- PERCENT INHIBITION @ (cPLA2; CONCENTRATION 100 micromolar): 50%
- inhibition at 100 µM (cPLA2; [2]): 38%
- inhibition in vivo at 2 mg/kg ([1]; 2 mg/Kg): 24.5%
- inhibition in vivo at 10 mg/kg ([1]; 10 mg/Kg): 22.8%

SMILES: O=C(O)c1cccc(NC(=O)c2cn(C(c3ccccc3)c3ccccc3)c3ccc(NC(=O)C4CCCC4)cc23)c1 [Example 100, 3-[({1-benzhydryl-5-[(cyclopentylcarbonyl)amino]-1H-indol-3-yl}carbonyl)amino]benzoic acid]
- inhibition at 24 µM (cPLA2; read-out: PERCENT INHIBITION @): 50%
- inhibition at 30 µM (cPLA2; read-out: PERCENT INHIBITION @): 50%
- inhibition at 80 µM (cPLA2; read-out: PERCENT INHIBITION @): 50%
- inhibition in vivo at 2 mg/kg ([1]; 2 mg/Kg): 6.14%
- inhibition in vivo at 10 mg/kg ([1]; 10 mg/Kg): 20.7%

SMILES: O=C(O)CCNC(=O)c1cn(C(c2ccccc2)c2ccccc2)c2ccc(NC(=O)C3CCCC3)cc12 [Example 101, 3-[({1-benzhydryl-5-[(cyclopentylcarbonyl)amino]-1H-indol-3-yl}carbonyl)amino]propanoic acid]
- inhibition at 100 µM (cPLA2; [2]): 6%
- inhibition at 400 µM (cPLA2; CONCENTRATION 400 micromolar, read-out: PERCENT INHIBITION @): 49%
- inhibition in vivo at 2 mg/kg ([1]; 2 mg/Kg): 11.2%
- inhibition in vivo at 10 mg/kg ([1]; 10 mg/Kg): 12.4%

SMILES: Cc1ccccc1S(=O)(=O)NC(=O)c1cn(C(c2ccccc2)c2ccccc2)c2ccc(NC(=O)C3CCCC3)cc12 [Example 102, N-[1-benzhydryl-3-({[(2-methylphenyl)sulfonyl]amino}carbonyl)-1H-indol-5-yl]cyclopentanecarboxamide]
- inhibition at 20 µM (cPLA2; CONCENTRATION 20 micromolar, read-out: PERCENT INHIBITION @): 31%
- inhibition at 48 µM (cPLA2; CONCENTRATION 48 micromolar, read-out: PERCENT INHIBITION @): 50%
- inhibition in vivo at 2 mg/kg ([1]; 2 mg/Kg): 2.56%
- inhibition in vivo at 10 mg/kg ([1]; 10 mg/Kg): 8.48%

SMILES: O=C(O)CCNC(=O)C(=O)c1cn(C(c2ccccc2)c2ccccc2)c2ccc(NC(=O)C3CCCC3)cc12 [Example 103, 3-[(2-{1-benzhydryl-5-[(cyclopentylcarbonyl)amino]-1H-indol-3-yl}-2-oxoacetyl)amino]propanoic acid]
- inhibition at 100 µM (cPLA2; [2]): 50%
- inhibition at 104 µM (cPLA2; CONCENTRATION 104 micromolar, read-out: PERCENT INHIBITION @): 50%
- inhibition in vivo at 2 mg/kg ([1]; 2 mg/Kg): 16.5%
- inhibition in vivo at 10 mg/kg ([1]; 10 mg/Kg): 17.3%

SMILES: O=C(Nc1cccc(C(=O)O)c1)C(=O)c1cn(C(c2ccccc2)c2ccccc2)c2ccc(NC(=O)C3CCCC3)cc12 [Example 104, 3-[(2-{1-benzhydryl-5-[(cyclopentylcarbonyl)amino]-1H-indol-3-yl}-2-oxoacetyl)amino]benzoic acid]
- inhibition at 22 µM (cPLA2; CONCENTRATION 22 micromolar, read-out: PERCENT INHIBITION @): 50%
- inhibition at 24 µM (cPLA2; read-out: PERCENT INHIBITION @): 50%
- inhibition in vivo at 2 mg/kg ([1]; 2 mg/Kg): 14.5%
- inhibition in vivo at 10 mg/kg ([1]; 10 mg/Kg): 6.01%

- inhibition at 2.4 µM (cPLA2; CONCENTRATION 2.4 micromolar, read-out: PERCENT INHIBITION @): 50%
- inhibition at 7 µM (cPLA2; CONCENTRATION 7 micromolar, read-out: PERCENT INHIBITION @): 50%
- inhibition at 10 µM (cPLA2; CONCENTRATION 10 micromolar, read-out: PERCENT INHIBITION @): 74%
SMILES: O=C(Cc1cn(Cc2ccc(Cc3ccccc3)cc2)c2ccc(OCc3ccccc3)cc12)Nc1cccc(C(=O)O)c1 [Example 105, 3-({2-[1-(4-benzylbenzyl)-5-(benzyloxy)-1H-indol-3-yl]acetyl}amino)benzoic acid]
- inhibition in vivo at 5 mg/kg [1]: 1.51%

SMILES: O=C(O)c1cn(C(c2ccccc2)c2ccccc2)c2ccc(NC(=O)C3CCCC3)cc12 [Example 114, 1-benzhydryl-5-[(cyclopentylcarbonyl)amino]-1H-indole-3-carboxylic acid]
- inhibition at 100 µM (cPLA2; [2]): 45%
- inhibition at 152 µM (cPLA2; CONCENTRATION 152 micromolar, read-out: PERCENT INHIBITION @): 50%
- inhibition at 170 µM (cPLA2; CONCENTRATION 170 micromolar, read-out: PERCENT INHIBITION @): 50%
- inhibition in vivo at 2 mg/kg ([1]; 2 mg/Kg): 12.2%
- inhibition in vivo at 10 mg/kg ([1]; 10 mg/Kg): 22.2%

- PERCENT INHIBITION @ (cPLA2; CONCENTRATION 50 micromolar): 89%
- PERCENT INHIBITION @ (cPLA2; CONCENTRATION 100 micromolar): 20%
- PERCENT INHIBITION @ (cPLA2; CONCENTRATION 250 micromolar): 50%
SMILES: O=C(O)C(=O)c1cn(C(c2ccccc2)c2ccccc2)c2ccc(NC(=O)C3CCCC3)cc12 [Example 115]
- PERCENT INHIBITION ([1]; 2 mg/Kg): 1.24%
- PERCENT INHIBITION ([1]; 10 mg/Kg): 18.46%
